We go through six compounds from patent US11390543B2, “Sterilization method” (NEWSOUTH INNOVATIONS PTY LIMITED, priority 2017, dated 2022).

The conditions of data set [1]: cited from earlier work.
Data set [2] in a line: pH of the solution measured during bubbling experiments. In kind it is physicochemical. The settings on record: for pH: […] NaCl. The method, then: The solubility at 52° C. (for viruses) and 43° C. (for E. coli) of the different gases used were obtained from literature values (http://www.engineeringtoolbox.com). The pH values were measured during the experiments and the Zeta potential values were measured during the experiments at a virus concentration of 10^8 per ml and E. coli concentration of 10^7 per ml.

The subject of data set [3] is Escherichia coli C-3000 (ATCC15597). Briefly: E. coli inactivation by bubbling gas through 0.17 M NaCl solution in bubble column evaporator, plaque assay. In kind it is cell-based.
Data set [4] concerns MS2 bacteriophage (ATCC 15597-B1). In words: MS2 virus inactivation by bubbling gas through 0.17 M NaCl solution in bubble column evaporator, double layer plaque assay. In kind it is cell-based. Conditions: for MS2 virus inactivation, log reduction: inlet gas temperature 200° C., after 37.5 min; for MS2 virus log reduction: as time approached 10 mins. The method, then:
MS2 bacteriophage (ATCC 15597-B1) was chosen as the model virus to evaluate the efficiency of methods of inactivation of viruses. MS2 is usually quantified by counting infectious units via a standard plaque assay that is commonly used for detection of MS2 in treated drinking water and waste-water.
Analysis of virus inactivation was carried out using the optimized Double Layer Plaque Assay technique described in Cormier et al, that detects only infectious viruses by using E. coli as their host.
A specific optimized Double Layer Plaque Assay technique as described in Cormier et al was used to assess the concentration of active MS2 viruses. This plaque assay method is commonly used for detection of MS2 in treated drinking water, wastewater and marine water. The water quality is assessed based on the ability of bacteriophages to kill the host bacteria and allow phages to propagate in a confluent lawn of bacterial host cells immobilized in a layer of agar.
A freeze-dried vial of MS2 bacteriophage was acquired from the American Type Culture Collection. Bacteriophage MS2 (ATCC 15597-B1) was replicated using Escherichia coli C-3000 (ATCC 15597) according to the International Standard ISO 10705-1 [31] and the Ultraviolet disinfection guidance manual of the United States Environmental Protection Agency. The zeta-potential of the MS2 viruses in 0.17 M NaCl solution with different gas bubbles was measured using a Malvern Zetasizer nano series instrument.
The gases were pumped through the electrical heater that maintained the gas temperature just above the sinter surface at the base of the bubble column evaporator at a particular temperature, depending on the experiment. The base of the bubble column evaporator was fitted with a 40-100 μm pore size glass sinter (type 2) of 135 mm diameter.
Once the aqueous solution was poured into the column, the temperature of the solution was measured with a thermocouple in the centre of the column solution. The gas was then passed through the sinter into the 300 ml solution to inactivate MS2 viruses or E. coli (in separate experiments). […]
Further experiments were also performed using MS2 virus in a 0.17 M NaCl solution (initial temperature of about 22° C.) in the BCE, with CO2 gas at different inlet temperatures (205° C., 150° C., 100° C., 11° C. and 20° C.) and with CO2 gas having an inlet temperature of 22° C. at different flow rates (27 l/min and 20 l/min).
Once the solutions with known concentration of coliphage and E. coli were prepared, experiments were conducted to study the inactivation of the coliphage with different gases and inlet gas temperatures. 1.3 ml samples were collected from 10 to 15 mm above the central area of the sinter every 6 minutes during 36 minutes for the virus experiments and every 2 min for the E. coli experiments. 0.07 ml of each sample was spotted in triplicate following the double layer plaque assay technique.
Plaque counts were performed for all 18-21 plates of each of the experiments. The mean and the standard deviation of each triplicated sample using a virus or bacteria survival factor: Log10(PFU/PFU0), where PFU0 is the initial number of PFU per sample and PFU is the PFU per sample after an exposure time in minutes. When plotted, a second order polynomial distribution was applied to fit the survival curves.

The test system of data set [5] is E. coli. Conditions: pH 4.2, stirred beaker, […] NaCl, 22° C., no bubbling. The method, then:
(§1) To evaluate the effect of solution pH on the inactivation of MS2 bacteriophage and E. coli experiments, comparison tests using 0.17 M NaCl solution at pH 4.1, were carried out in a separate beaker, in a water bath. During these experiments, samples were regularly taken out from the beaker and analysed as before.
(§2) To determine if the reduction in pH, due to dissolved CO2 (equations 1, 2, 3 and 4), was related to its disinfectant effects, two experiments with carbonic acid (H2CO3) at pH 4.2 were conducted in a continuous stirred beaker, one for viruses and another one for bacteria.
(§3) Carbonic acid (H2CO3) was produced by bubbling 27 l/min. of pure CO2 through the 0.17 M NaCl solution during 10 minutes at 22° C. […] Some authors describe a small, low pH inactivation effect on microbial cells, since membranes stop protons from penetration but low pH makes membrane more permeable to other substances like CO2 due to the chemical modification on the phospholipid bilayer of membranes.

The test system of the next data set is MS2 bacteriophage. Conditions: pH 4.2, stirred beaker, […] NaCl, 22° C., no bubbling. The method, then:
as §1, §2, §3

Another data set relates to MS2 virus. Conditions: 1 to 2 M of NaCl; cited from earlier work.
In data set [6] the test system is E. coli. The settings on record: cited from earlier work.
Setting [7] is: in water at 43° C., 1 atm (E. coli section).
[8] abbreviates: in water at 52° C., 1 atm (virus section).
[9] abbreviates: E. coli experiments, gases at 150° C. (combustion gas 58° C.).
Where [10] appears, read: MS2 experiments, gases at 200° C. (combustion gas 60° C.).
[11] abbreviates: inlet gas temperature 150° C., after 10 min.

Several values for one entry are separate records, joined by “and”; a condition that tells them apart may be missing. Equal values may be shown once. Read-outs that look alike come from different tables or passages of the source.

Regarding `O=O` [Oxygen], the Solubility was 0.030 Grams dissolved in 1 Kg of wat in data set [1] (setting [7]) and 0.027 Grams dissolved in 1 Kg of wat in data set [1] (setting [8]). The values for the pH in data set [2] (setting [9]) and in data set [2] (setting [10]) were 6.1 and 6, respectively. In addition, the E. coli reduction in data set [3] (oxygen at 150° C. inlet gas temperature as printed) is recorded as 0.65 log. For the same compound, the “E. coli inactivation, log reduction” value in data set [3] (oxygen bubbles at 150° C., after 3.5 minutes) stood at 2.90 log. Also, the “MS2 virus inactivation, log reduction” value in data set [4] is 1.5 log.

For `[Ar]` [Argon], the Solubility in data set [1] (setting [7]) is reported as 0.040 Grams dissolved in 1 Kg of wat; in data set [1] (setting [8]), 0.035 Grams dissolved in 1 Kg of wat. Also, the pH in data set [2] (setting [9]) and in data set [2] (setting [10]) was 6.0 in each case. Further, in data set [3] (setting [11]), the “E. coli inactivation, log reduction” value is 0.40 log. The “MS2 virus inactivation, log reduction” value in data set [4] is 1.5 log.

In the case of `O=C=O` [Carbon dioxide], the Solubility in data set [1] (setting [7]) is given as 0.950 Grams dissolved in 1 Kg of wat; in data set [1] (setting [8]), 0.800 Grams dissolved in 1 Kg of wat. Further, the pH in data set [2] (setting [9]) and in data set [2] (setting [10]) was 4.0 each time. The “pH of the water when using CO2 gas in the bubble column” value in data set [2] (dropped from 5.9 in less than 45 seconds) is recorded as 4.2. In data set [3] (inlet gas temperature 150° C., after 10 min, listed as CO2), the “E. coli inactivation, log reduction” value is 2.84 log and 2.6 log. Moreover, the MS2 virus log-reduction was found to be 2.3 log in data set [4] (150° C. inlet CO2 temperature, after 7 min); 0.1 log in data set [4] (CO2 11° C. inlet temperature, 9° C. column temperature, after 6.5 minutes); 0.35 log in data set [4] (CO2 at 22° C., 20 l/min, after 2 minutes); 0.62 log in data set [4] (CO2 at 22° C., 27 l/min, after 2 minutes); 3 log in data set [4] (CO2 at 200° C., after 3 min). For the same compound, in data set [4] (CO2 (100%) at 200° C., in 3.5 minutes), the “MS2 virus inactivation rate” value amounted to 2.7 log. The “MS2 virus log reduction” value in data set [4] (CO2 at 22° C., 20 l/min) was “about 1 log”; in data set [4] (CO2 at 22° C., 27 l/min) it was “about 1 log”. Moreover, in data set [4] (CO2 at 200° C., within 5 min), the “MS2 virus log inactivation” value stood at 2.0 log. The same compound gave an MS2 virus reduction in data set [4] (CO2 bubbles at room temperature, 10 min) of 1 log.

For `N#N` [Nitrogen], the “E. coli inactivation, log reduction” value in data set [3] (setting [11]) is 1.74 log and 1.5 log. For the same compound, in data set [4], the “MS2 virus inactivation, log reduction” value came out at 1.5 log.

Consider `O=C(O)O` [Carbonic acid (H2CO3), Carbonic acid], for which the “E. coli log removal” value in the data set on E. coli [5] stood at 0.08 log. This compound had a log virus reduction in the data set on MS2 bacteriophage of 0.002 log.

As to `[Cl-].[Na+]` [NaCl], the “stability of MS2 virus in the presence of NaCl” value in the data set with MS2 virus is listed as “stable”. Besides, the “inactivation of E. coli by NaCl solutions” value in the data set on E. coli [6] is listed as “do not inactivate E. coli”.
